# Experimental data from ChEMBL document CHEMBL2384987, “Metabolites from Microcystis aeruginosa bloom material collected at a water reservoir near Kibbutz Hafetz Haim, Israel” (J Nat Prod, 2013).
# Activity calls are given as the source filed them. The rule behind the calls is not given here. *1 amine or outer side, *2 acyl side, *3 side chain or, on linkers, in order; H or OH if unused. Where a SMILES comes first, the peptide text is derived from it. Bridges are numbered along the chain shown (N, C = ends). [ ]: non-standard residue; d: D form. The star is where a group is joined. Propanoyl(2R-OH,3-(4-HOPh)) = O=C([C@H](O)Cc1ccc(O)cc1)*; X1 = CO[C@@H]1CC[C@H](C(=O)[*:2])N1[*:1]; NMeF = CN[C@@H](Cc1ccccc1)C(=O)O
# Legend:
# Trypsin [1] = molecular target: T1, Trypsin (Homo sapiens, UniProt P07477+P07478+P35030); test: Inhibition of trypsin (unknown origin); type: protein assay
# [2] = Inhibition of elastase (unknown origin); parameters: species or system Homo sapiens
# [3] = Inhibition of chymotrypsin (unknown origin); parameters: species or system Homo sapiens
# [4] = molecular target: Prothrombin (Homo sapiens) (UniProt P00734); test: Inhibition of thrombin (unknown origin) at 45.5 uM
# Trypsin [5] = molecular target: T1, Trypsin; test: Inhibition of trypsin (unknown origin) at 45.5 uM; type: protein assay
IC50 (Trypsin [1]) [µM],IC50 [2] [µM],IC50 [3] [µM],inhibition [4],inhibition (Trypsin [5]),Compound
45.5,–,–,–,–,CC(=O)O[C@@H]1CC[C@@H]2C[C@H](C(N)=O)N(C(=O)[C@@H](Cc3ccc(O)cc3)NC(=O)[C@@H](O)Cc3ccc(O)cc3)[C@@H]2C1
–,55.5,48.5,inactive,inactive,CC(C)C[C@@H]1NC(=O)[C@@H](NC(=O)[C@H](CC(N)=O)NC(=O)[C@H](O)Cc2ccc(O)cc2)[C@@H](C)OC(=O)[C@H](C(C)C)NC(=O)[C@H](Cc2ccccc2)N(C)C(=O)[C@H](CC(C)C)N2C=CC[C@H](NC1=O)C2=O
–,17.6,4.3,inactive,inactive,CC(C)C[C@@H]1NC(=O)[C@@H](NC(=O)[C@H](CC(N)=O)NC(=O)[C@H](O)Cc2ccc(O)cc2)[C@@H](C)OC(=O)[C@H](C(C)C)NC(=O)[C@H](Cc2ccccc2)N(C)C(=O)[C@H](CC(C)C)N2C(=O)[C@H](CC[C@H]2O)NC1=O
–,16.9,45.9,inactive,inactive,"CO[C@@H]1CC[C@@H]2C(=O)N[C@@H](CC(C)C)C(=O)N(C)[C@@H](Cc3ccccc3)C(=O)N[C@@H](C(C)C)C(=O)O[C@H](C)[C@H](NC(=O)[C@H](CC(N)=O)NC(=O)[C@H](O)Cc3ccc(O)cc3)C(=O)N[C@@H](CC(C)C)C(=O)N21 ({Propanoyl(2R-OH,3-(4-HOPh))}-NTL[X1]L[NMeF]V; ester 2-C)"
